The record followed here is PubChem BioAssay AID330 (DTP/NCI, 2004).

The subject of this experiment is P388 leukemia ip, CD2F1 mice, survival T/C. Description: NCI In Vivo Anticancer Drug Screen. Data for tumor model P388 Leukemia (intraperitoneal) in CD2F1 (CDF1) mice. Conditions: endpoint: median survival time, higher = longer survival. A digest of the protocol: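 Mice carrying the transplanted tumor received test compound or vehicle. Survival was recorded in each group, and the value is the treated-group measurement divided by that of the vehicle-treated control group.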

Setting [1] is: dose: 50.0 mg/kg/injection, schedule: Q01DX009 (ip), vehicle: Klucel (hydroxypropylcellulose) (HPC).
[2] abbreviates: dose: 100.0 mg/kg/injection, schedule: Q01DX009 (ip), vehicle: Klucel (hydroxypropylcellulose) (HPC).
Where [3] appears, read: dose: 60.0 mg/kg/injection, schedule: Q01DX005 (ip), vehicle: saline.
[4] abbreviates: dose: 120.0 mg/kg/injection, schedule: Q01DX005 (ip), vehicle: saline.
Setting [5] is: dose: 240.0 mg/kg/injection, schedule: Q01DX005 (ip), vehicle: saline.
The mark [6] stands for this setting: dose: 50.0 mg/kg/injection, schedule: Q01DX005 (ip), vehicle: Klucel (hydroxypropylcellulose) (HPC).
[7] abbreviates: dose: 100.0 mg/kg/injection, schedule: Q01DX005 (ip), vehicle: Klucel (hydroxypropylcellulose) (HPC).
Where [8] appears, read: dose: 50.0 mg/kg/injection, schedule: Q01DX009 (ip), vehicle: saline with Tween-80.
Setting [9] is: dose: 100.0 mg/kg/injection, schedule: Q01DX009 (ip), vehicle: saline with Tween-80.
The mark [10] stands for this setting: dose: 200.0 mg/kg/injection, schedule: Q01DX009 (ip), vehicle: saline with Tween-80.
Where [11] appears, read: dose: 200.0 mg/kg/injection, schedule: Q01DX005 (ip), vehicle: Klucel (hydroxypropylcellulose) (HPC).
The mark [12] stands for this setting: dose: 50.0 mg/kg/injection, schedule: Q01DX009 (ip), vehicle: saline.

Values joined by “and” are separate entries in the source; they are usually repeats but may differ in a detail not shown here. Equal entries are not always repeated. Inconclusive results and toxic doses are left out.

Regarding `CCn1c(=O)c2n[nH]nc2n(CCCl)c1=O`, the T/C runs as follows: under setting [1], 101 % of control; under setting [2], 103 % of control; (dose: 200.0 mg/kg/injection, schedule: Q01DX009 (ip), vehicle: Klucel (hydroxypropylcellulose) (HPC)) 96 % of control.

With `O=C(O)C(Cc1c[nH]c2ccccc12)C(=O)NO` (stereo unspecified), the T/C under setting [3] is 97 % of control, the T/C under setting [4] was 97 % of control and the T/C under setting [5] was 94 % of control.

For the compound `CC1=NC(C)(COC(=O)C2(C)NC(C)(CO)CO2)COC1=O` (stereo unspecified), the T/C reads like this: under setting [3], 105 % of control; under setting [4], 97 % of control; under setting [5], 97 % of control.

Take `CCCn1c(C)nc2c(N)cc(C)cc21`: the T/C is, setting by setting: (dose: 25.0 mg/kg/injection, schedule: Q01DX005 (ip), vehicle: Klucel (hydroxypropylcellulose) (HPC)) 101 % of control; under setting [6], 94 % of control; under setting [7], 97 % of control.

For `CCCCN(CCO)CC(O)Cn1cnc2c(N)ncnc21` (stereo unspecified) (tested in a mixture with another compound), the T/C reads like this: under setting [3], 94 % of control; under setting [4], 97 % of control; under setting [5], 94 % of control.

As to `CCCCOC(=S)Nc1ccccc1`, the T/C was 99 % of control (dose: 50.0 mg/kg/injection, schedule: Q01DX009 (ip), vehicle: saline + Tween-80 + alcohol); 104 % of control under setting [8]; 108 % of control (dose: 100.0 mg/kg/injection, schedule: Q01DX009 (ip), vehicle: saline + Tween-80 + alcohol); 100 % of control under setting [9]; 98 % of control (dose: 200.0 mg/kg/injection, schedule: Q01DX009 (ip), vehicle: saline + Tween-80 + alcohol); 98 % of control under setting [10]. The T/C (dose: 400.0 mg/kg/injection, schedule: Q01DX009 (ip), vehicle: saline + Tween-80 + alcohol) was 97 % of control and the T/C (dose: 400.0 mg/kg/injection, schedule: Q01DX009 (ip), vehicle: saline with Tween-80) is 110 % of control.

On to `CCc1nc(N)nc(N)c1-c1ccc(N2CCNCC2)cc1`, for which the T/C by setting is: under setting [6], 96 % of control; under setting [7], 95 % of control; under setting [11], 101 % of control.

Consider `COc1cc(OC)c2c3c1CCC(O)=C3C(=O)OC2`, for which the T/C was 94 % of control (dose: 4.38 mg/kg/injection, schedule: Q01DX005 (ip), vehicle: Klucel (hydroxypropylcellulose) (HPC)); 94 % of control (dose: 8.75 mg/kg/injection, schedule: Q01DX005 (ip), vehicle: Klucel (hydroxypropylcellulose) (HPC)); 94 % of control (dose: 17.5 mg/kg/injection, schedule: Q01DX005 (ip), vehicle: Klucel (hydroxypropylcellulose) (HPC)).

For `NC(=O)c1[nH]cnc1NN=NCCF`, the T/C runs as follows: (dose: 0.39 mg/kg/injection, schedule: Q01DX009 (ip), vehicle: distilled water + Tween-80) 116 % of control and 122 % of control; (dose: 0.78 mg/kg/injection, schedule: Q01DX009 (ip), vehicle: distilled water + Tween-80) 116 % of control; (dose: 1.56 mg/kg/injection, schedule: Q01DX009 (ip), vehicle: distilled water + Tween-80) 150 % of control; (dose: 3.13 mg/kg/injection, schedule: Q01DX009 (ip), vehicle: distilled water + Tween-80) 179 % of control; (dose: 6.25 mg/kg/injection, schedule: Q01DX009 (ip), vehicle: distilled water + Tween-80) 175 % of control.

As for `O=C1CC2(C(=O)O1)c1ccccc1-c1ccccc12`, the T/C (dose: 60.0 mg/kg/injection, schedule: Q01DX005 (ip), vehicle: saline with Tween-80) is 111 % of control; the T/C (dose: 120.0 mg/kg/injection, schedule: Q01DX005 (ip), vehicle: saline with Tween-80) was 105 % of control; the T/C (dose: 240.0 mg/kg/injection, schedule: Q01DX005 (ip), vehicle: saline with Tween-80) was 112 % of control.

Regarding `COc1cc(CBr)ccc1OCc1ccccc1`, the T/C is, setting by setting: (dose: 12.5 mg/kg/injection, schedule: Q01DX009 (ip), vehicle: distilled water + Tween-80) 111 % of control; (dose: 25.0 mg/kg/injection, schedule: Q01DX009 (ip), vehicle: distilled water + Tween-80) 101 % of control; (dose: 50.0 mg/kg/injection, schedule: Q01DX009 (ip), vehicle: distilled water + Tween-80) 108 % of control; (dose: 100.0 mg/kg/injection, schedule: Q01DX009 (ip), vehicle: distilled water + Tween-80) 108 % of control.

`Cc1nc(-c2ccccc2)oc1C(N)=O`: the T/C by setting is: under setting [1], 108 % of control; under setting [2], 110 % of control.

In the case of `CSCCCCCCSC`, the T/C is 100 % of control (dose: 50.0 mg/kg/injection, schedule: Q04DX003 (ip), vehicle: saline with Tween-80); 100 % of control (dose: 100.0 mg/kg/injection, schedule: Q04DX003 (ip), vehicle: saline with Tween-80); 109 % of control (dose: 200.0 mg/kg/injection, schedule: Q04DX003 (ip), vehicle: saline with Tween-80).

Take `O=C1c2ccccc2C(=O)c2c(NCC3CCCN4CCCCC34)cccc21` (stereo unspecified): the T/C by setting is: under setting [6], 100 % of control; under setting [7], 98 % of control; under setting [11], 100 % of control.

For the compound `COC(=O)c1[c]([Sn]([CH3])([CH3])[CH3])n[n]([Pb]([CH3])([CH3])[CH3])c1C(=O)OC`, the T/C is 95 % of control (dose: 6.25 mg/kg/injection, schedule: Q04DX003 (ip), vehicle: saline); 95 % of control (dose: 12.5 mg/kg/injection, schedule: Q04DX003 (ip), vehicle: saline); 95 % of control (dose: 25.0 mg/kg/injection, schedule: Q04DX003 (ip), vehicle: saline).

As to `C1=CC2(C=CC13OCCO3)OCCO2`, the T/C is, setting by setting: (dose: 25.0 mg/kg/injection, schedule: Q04DX003 (ip), vehicle: Klucel (hydroxypropylcellulose) (HPC)) 107 % of control; (dose: 50.0 mg/kg/injection, schedule: Q04DX003 (ip), vehicle: Klucel (hydroxypropylcellulose) (HPC)) 99 % of control; (dose: 100.0 mg/kg/injection, schedule: Q04DX003 (ip), vehicle: Klucel (hydroxypropylcellulose) (HPC)) 103 % of control.

`COc1cccc2c1C(=O)c1c(O)c3c(c(O)c1C2=O)CC(O)(C(C)=O)CC3O` (stereo unspecified): the T/C is 100 % of control (dose: 6.25 mg/kg/injection, schedule: Q01DX009 (ip), vehicle: other); 92 % of control (dose: 12.5 mg/kg/injection, schedule: Q01DX009 (ip), vehicle: other); 91 % of control (dose: 25.0 mg/kg/injection, schedule: Q01DX009 (ip), vehicle: other); 91 % of control (dose: 50.0 mg/kg/injection, schedule: Q01DX009 (ip), vehicle: other); 119 % of control (dose: 100.0 mg/kg/injection, schedule: Q01DX009 (ip), vehicle: other); 92 % of control (dose: 200.0 mg/kg/injection, schedule: Q01DX009 (ip), vehicle: other). In addition, under “dose: 400.0 mg/kg/injection, schedule: Q01DX009 (ip), vehicle: other”, the T/C was 98 % of control.

With `C[N+]1(CI)CC2CC(C1)C[N+](C)(CI)C2` (stereo unspecified), the T/C runs as follows: (dose: 12.5 mg/kg/injection, schedule: Q01DX009 (ip), vehicle: saline) 105 % of control; (dose: 25.0 mg/kg/injection, schedule: Q01DX009 (ip), vehicle: saline) 110 % of control; under setting [12], 108 % of control.

In the case of `CNC(=O)Oc1ccc(C2CCCCC2)cc1`, the T/C was 107 % of control under setting [8], 107 % of control under setting [9] and 88 % of control under setting [10].

`O=C1CC(c2cccc(S(=O)(=O)O)c2)=NN1c1ccc([N+](=O)[O-])cn1`: the T/C is, setting by setting: (dose: 100.0 mg/kg/injection, schedule: Q04DX003 (ip), vehicle: saline) 108 % of control; (dose: 200.0 mg/kg/injection, schedule: Q04DX003 (ip), vehicle: saline) 100 % of control; (dose: 400.0 mg/kg/injection, schedule: Q04DX003 (ip), vehicle: saline) 106 % of control.

Regarding `S=c1nc[nH]c2c1ncn2C1C=CC=CC=C1`, the T/C is 110 % of control (dose: 50.0 mg/kg/injection, schedule: Q01DX005 (ip), vehicle: saline with Tween-80) and 106 % of control (dose: 100.0 mg/kg/injection, schedule: Q01DX005 (ip), vehicle: saline with Tween-80).

Turning to `[O]=[Ge]=[O]`, the T/C is 111 % of control under setting [12]; 104 % of control (dose: 100.0 mg/kg/injection, schedule: Q01DX009 (ip), vehicle: saline); 111 % of control (dose: 200.0 mg/kg/injection, schedule: Q01DX009 (ip), vehicle: saline).
